Results: ChEMBL document CHEMBL1201862, “PubChem BioAssay data set” (2004)
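Dose response: 5 concentrations. Exposure: 48 h. Format: 96-well plates. Endpoint: linear interpolation; highest concentration if not reached. GI50 is the concentration that inhibits growth by half.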 The source made the active and inactive calls. No stated cut-off is given here; in the data, active = GI50 up to about 1.1 µM and inactive = higher.

How the values were obtained:
Experiment in all cases: NCI tumour cell line growth inhibition, 48 h
[1] = test system: PC-3
[2] = test system: CCRF-CEM
[3] = test system: SK-MEL-2
[4] = test system: MCF7
[5] = test system: RPMI-8226
[6] = test system: CAKI-1
[7] = test system: OVCAR-4
[8] = test system: COLO 205
[9] = test system: HOP-92
[10] = test system: MOLT-4
[11] = test system: UO-31
[12] = test system: A549
[13] = test system: NCI-H522
[14] = test system: UACC-257
[15] = test system: EKVX
[16] = test system: U-251
[17] = test system: DU-145
[18] = test system: HT-29
[19] = test system: LOX IMVI
[20] = test system: SK-MEL-28

Structure (SMILES) | GI50 [1] | GI50 [2] | GI50 [3] | GI50 [4] | GI50 [5] | GI50 [6] | GI50 [7] | GI50 [8] | GI50 [9] | GI50 [10] | GI50 [11] | GI50 [12] | GI50 [13] | GI50 [14] | GI50 [15] | GI50 [16] | GI50 [17] | GI50 [18] | GI50 [19] | GI50 [20]
O=C(O)c1ccccc1/C=C1/Cc2ccc3c(c2C1=O)CCC3 | 42.9 µM (inactive) | 38.9 µM (inactive) | 12.7 µM (inactive) | 49.5 µM (inactive) | 22.4 µM (inactive) | > 100 µM (inactive) | 29.8 µM (inactive) | 19.1 µM (inactive) | 24.9 µM (inactive) | 33.8 µM (inactive) | 39.7 µM (inactive) | 44.7 µM (inactive) | 42.4 µM (inactive) | 41.8 µM (inactive) | 48.1 µM (inactive) | 27.6 µM (inactive) | 68.9 µM (inactive) | 44.7 µM (inactive) | 19.1 µM (inactive) | 42.8 µM (inactive)
Fc1cccc(F)c1C1SCc2nc3ccc(Cl)cc3n21 (configuration not stated) | > 82.8 µM (inactive) | > 100 µM (inactive) | > 100 µM (inactive) | > 83 µM (inactive) | 82.4 µM (inactive) | > 100 µM (inactive) | 85.3 µM (inactive) | > 100 µM (inactive) | > 100 µM (inactive) | > 100 µM (inactive) | > 100 µM (inactive) | > 100 µM (inactive) | > 100 µM (inactive) | > 100 µM (inactive) | > 100 µM (inactive) | > 100 µM (inactive) | > 100 µM (inactive) | > 85.7 µM (inactive) | > 100 µM (inactive) | > 100 µM (inactive)
CCOC1=C(c2ccccc2)N2CCCCC2O1 (configuration not stated) | 2.61 µM (inactive) | 2.94 µM (inactive) | 2.25 µM (inactive) | 3.76 µM (inactive) | 1.5 µM (inactive) | 26.5 µM (inactive) |  | 2.22 µM (inactive) | 2.21 µM (inactive) | 4.27 µM (inactive) | 19.8 µM (inactive) | 5.57 µM (inactive) | 3.38 µM (inactive) | 3.46 µM (inactive) | 5.19 µM (inactive) | 3.35 µM (inactive) | 4.19 µM (inactive) | 2.99 µM (inactive) | 3.77 µM (inactive) | 12.3 µM (inactive)
COc1ccc2cc(CNCCCCCCNC(=O)Nc3cccc4ccccc34)ccc2c1 | > 100 µM (inactive) | > 100 µM (inactive) | > 100 µM (inactive) | > 100 µM (inactive) | > 100 µM (inactive) | > 100 µM (inactive) | > 100 µM (inactive) | > 100 µM (inactive) | > 100 µM (inactive) | > 100 µM (inactive) |  | > 100 µM (inactive) | > 100 µM (inactive) | > 100 µM (inactive) | > 100 µM (inactive) | > 100 µM (inactive) | > 100 µM (inactive) | > 100 µM (inactive) | > 100 µM (inactive) | > 100 µM (inactive)
COC(=O)C1C/C(=C/N(C)C)C(=S)N1 (configuration not stated) | > 100 µM (inactive) | > 100 µM (inactive) | > 100 µM (inactive) | > 100 µM (inactive) | > 100 µM (inactive) | > 100 µM (inactive) | > 100 µM (inactive) | > 100 µM (inactive) | 54.1 µM (inactive) | > 100 µM (inactive) | > 100 µM (inactive) | > 100 µM (inactive) | > 100 µM (inactive) | > 100 µM (inactive) | > 100 µM (inactive) | > 100 µM (inactive) | > 100 µM (inactive) | > 100 µM (inactive) |  | > 100 µM (inactive)
O=S(=O)(O)C(c1ccccc1)C(O)c1ccccc1 (configuration not stated) | > 100 µM (inactive) | > 100 µM (inactive) | > 100 µM (inactive) | > 100 µM (inactive) | > 100 µM (inactive) | > 100 µM (inactive) | > 100 µM (inactive) | > 100 µM (inactive) | > 100 µM (inactive) |  | > 100 µM (inactive) | > 100 µM (inactive) | > 100 µM (inactive) | 46.5 µM (inactive) | > 100 µM (inactive) | > 100 µM (inactive) | > 100 µM (inactive) | > 100 µM (inactive) | > 100 µM (inactive) | > 100 µM (inactive)
C/C=C(/C)C(=O)O[C@H]1C[C@@H]2[C@@H](O)c3occ(C)c3C[C@]2(C)[C@@H](C)C1 | 14.4 µM (inactive) | 18.4 µM (inactive) |  | 20.9 µM (inactive) | 25.6 µM (inactive) | 18.3 µM (inactive) | 18 µM (inactive) | 16.2 µM (inactive) | 17.4 µM (inactive) | 15.2 µM (inactive) |  |  | 14.6 µM (inactive) | 11.1 µM (inactive) | 15.8 µM (inactive) | 14.8 µM (inactive) | 14.8 µM (inactive) | 15.6 µM (inactive) | 17.5 µM (inactive) | 16.3 µM (inactive)
CC(C)CC(NC(=O)C(CI)Cc1ccccc1)C(=O)Nc1ccccc1 (configuration not stated) | > 100 µM (inactive) | > 100 µM (inactive) | > 100 µM (inactive) | > 100 µM (inactive) | > 100 µM (inactive) | > 100 µM (inactive) | 50 µM (inactive) | > 100 µM (inactive) | > 100 µM (inactive) | > 100 µM (inactive) | > 100 µM (inactive) | > 100 µM (inactive) | > 100 µM (inactive) | > 100 µM (inactive) | > 100 µM (inactive) | > 100 µM (inactive) | > 100 µM (inactive) |  | > 100 µM (inactive) | > 100 µM (inactive)
O=C(NCCCCCCO)c1cccc2cc3ccccc3nc12 | 17 µM (inactive) | 32.3 µM (inactive) | 16.1 µM (inactive) | 20.4 µM (inactive) | 16.7 µM (inactive) | 17.4 µM (inactive) | 18.9 µM (inactive) | 11.7 µM (inactive) | 25.8 µM (inactive) | 16.7 µM (inactive) |  | 15.5 µM (inactive) | 13.3 µM (inactive) | 17.6 µM (inactive) | 16.7 µM (inactive) | 38.9 µM (inactive) | 17.7 µM (inactive) | 17.5 µM (inactive) | 16.6 µM (inactive) | 20.6 µM (inactive)
CC(=O)C1C(=O)C(=O)N(c2ccc(Br)cc2)C1=O (configuration not stated) | > 100 µM (inactive) | > 100 µM (inactive) | > 100 µM (inactive) | > 100 µM (inactive) |  | > 100 µM (inactive) | > 100 µM (inactive) | > 100 µM (inactive) | > 100 µM (inactive) | > 100 µM (inactive) | > 100 µM (inactive) | > 100 µM (inactive) | > 100 µM (inactive) | > 100 µM (inactive) | > 100 µM (inactive) | > 100 µM (inactive) | > 100 µM (inactive) | > 100 µM (inactive) | > 100 µM (inactive) | > 100 µM (inactive)
Nc1nc(SCC(=O)c2ccc(Br)cc2)c2nc[nH]c2n1 | 34.2 µM (inactive) | 6.28 µM (inactive) | 32.1 µM (inactive) | 56.4 µM (inactive) | 17.1 µM (inactive) | 26.2 µM (inactive) | 53.3 µM (inactive) | 17 µM (inactive) | 17.3 µM (inactive) |  | 27.4 µM (inactive) | 55 µM (inactive) | 17.8 µM (inactive) | 30.5 µM (inactive) | 38.5 µM (inactive) | 44.4 µM (inactive) | 27.5 µM (inactive) | 44.6 µM (inactive) | 31.4 µM (inactive) | 65.2 µM (inactive)
COc1cc(Nc2nnc3n2S(=O)(=O)c2cc(C)c(Cl)cc2S3)cc(OC)c1 | 8.83 µM (inactive) | 4.29 µM (inactive) |  | 13.6 µM (inactive) | 2.87 µM (inactive) | 8.55 µM (inactive) | 4.3 µM (inactive) | 13.2 µM (inactive) | 5.26 µM (inactive) | 4.29 µM (inactive) | 11.6 µM (inactive) | 6.62 µM (inactive) | 2.61 µM (inactive) | 16.6 µM (inactive) | 15.4 µM (inactive) | 10.9 µM (inactive) | 10.7 µM (inactive) | 12.4 µM (inactive) |  | 26 µM (inactive)
CC(C)C[C@H](NC(=O)[C@@H](N)Cc1cccc2ccccc12)B(O)O | 0.0667 µM (active) |  | 0.0399 µM (active) | < 0.0232 µM (active) | < 0.0164 µM (active) | < 0.0164 µM (active) | 0.232 µM (active) | 0.0417 µM (active) | 0.398 µM (active) | < 0.0177 µM (active) | 0.0331 µM (active) | 0.0766 µM (active) | 0.187 µM (active) | 0.0311 µM (active) |  | 0.0416 µM (active) | 0.44 µM (active) | < 0.0178 µM (active) | < 0.0179 µM (active) | < 0.0149 µM (active)
O=C(O)C(F)(OC(F)(F)C(F)(F)C(F)(F)F)C(F)(F)F (configuration not stated) | > 100 µM (inactive) |  | > 100 µM (inactive) | > 100 µM (inactive) | > 100 µM (inactive) | > 100 µM (inactive) | > 100 µM (inactive) | > 100 µM (inactive) | > 100 µM (inactive) | > 100 µM (inactive) | > 100 µM (inactive) | > 100 µM (inactive) | > 100 µM (inactive) | > 100 µM (inactive) | > 100 µM (inactive) | > 100 µM (inactive) | > 100 µM (inactive) | > 100 µM (inactive) | > 100 µM (inactive) | > 100 µM (inactive)
CN1CCN(Cn2nc(COc3ccccc3Cl)n(/N=C/c3ccc(-c4ccc(Cl)cc4Cl)o3)c2=S)CC1 | 23.8 µM (inactive) | 25.6 µM (inactive) | 22.4 µM (inactive) | 19.6 µM (inactive) | 29.2 µM (inactive) | 22.7 µM (inactive) | 20 µM (inactive) |  | 14.3 µM (inactive) | 24.5 µM (inactive) | 33.2 µM (inactive) |  | 26.2 µM (inactive) | 34.8 µM (inactive) | 39.4 µM (inactive) | 19.3 µM (inactive) | 20 µM (inactive) | 19.5 µM (inactive) | 33.4 µM (inactive) | 60.5 µM (inactive)
